Measured values reported in ChEMBL document CHEMBL1123668, “Inhibition of aspartic proteinases by peptides containing lysine and ornithine side-chain analogues of statine” (J Med Chem, 1987).
pKi: −log10 of the molar value. Square brackets hold non-standard residues; d marks the D form. Peptide text beside a SMILES is read from it. * marks the point of attachment. ξ: configuration not given here. Sta = CC(C)C[C@H](N)[C@@H](O)CC(=O)O; Isovaleryl = CC(C)CC(=O)*; ξF = NC(Cc1ccccc1)C(=O)O

Tests used:
Rhizopuspepsin = target: T1, Rhizopuspepsin (Rhizopus microsporus var. chinensis, UniProt P06026); experiment: Inhibition of Rhizopus chinensis pepsin
T1 sequence (P06026 whole entry): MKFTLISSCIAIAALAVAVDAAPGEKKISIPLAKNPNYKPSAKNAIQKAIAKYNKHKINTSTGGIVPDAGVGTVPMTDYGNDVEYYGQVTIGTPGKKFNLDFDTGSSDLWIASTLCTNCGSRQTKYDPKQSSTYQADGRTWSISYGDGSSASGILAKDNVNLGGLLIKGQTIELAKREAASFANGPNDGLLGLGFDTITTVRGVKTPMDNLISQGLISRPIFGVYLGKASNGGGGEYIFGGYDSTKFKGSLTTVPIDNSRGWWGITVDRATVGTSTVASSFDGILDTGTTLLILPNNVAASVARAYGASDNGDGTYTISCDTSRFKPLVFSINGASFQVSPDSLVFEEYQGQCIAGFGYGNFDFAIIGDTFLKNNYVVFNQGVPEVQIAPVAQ

[1] = Compound was evaluated for the inhibition of […] penicillopepsin; Value is time-dependent inhibition (TDI) with T1/2 > 30 s)
[2] = Compound was evaluated for the inhibition of […] penicillopepsin; ( Value is time-dependent inhibition (TDI) with T1/2 > 30 s.)
Pepsin A = Pepsin A (Sus scrofa, UniProt P00791); experiment: Compound was evaluated for the inhibition of porcine pepsin
[3] = Compound was evaluated for the inhibition of porcine penicillopepsin

Sequence of Pepsin A (P00791 whole entry): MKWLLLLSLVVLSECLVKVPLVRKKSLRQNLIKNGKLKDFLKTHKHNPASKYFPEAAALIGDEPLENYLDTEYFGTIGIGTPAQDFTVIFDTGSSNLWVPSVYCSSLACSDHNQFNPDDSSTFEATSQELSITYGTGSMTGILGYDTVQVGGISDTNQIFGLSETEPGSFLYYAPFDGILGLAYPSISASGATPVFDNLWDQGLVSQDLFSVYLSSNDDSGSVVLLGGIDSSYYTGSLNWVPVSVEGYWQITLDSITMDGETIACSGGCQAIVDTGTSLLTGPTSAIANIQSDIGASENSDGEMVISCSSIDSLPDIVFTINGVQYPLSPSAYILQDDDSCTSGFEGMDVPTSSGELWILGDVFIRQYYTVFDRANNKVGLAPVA

Compound `CCOC(=O)CC(O)[C@H](CCCN)NC(=O)[C@H](NC(=O)C(NC(=O)CC(C)C)C(C)C)C(C)C` (stereo partly specified) has a pKi (Rhizopuspepsin) of 7.33 and a pKi [1] of 8.96.

`COC(=O)C(Cc1ccccc1)NC(=O)C[C@H](O)[C@H](CCCCN)NC(=O)[C@H](NC(=O)C(NC(=O)CC(C)C)C(C)C)C(C)C` (stereo partly specified) showed a pKi [2] of 10.10.

In the case of `CCOC(=O)C[C@H](O)[C@H](CCCCNC(C)=O)NC(=O)[C@H](NC(=O)C(NC(=O)CC(C)C)C(C)C)C(C)C` (stereo partly specified), the pKi (Rhizopuspepsin) was 7.54, the pKi (Pepsin A) was 5.72 and the pKi [3] was 7.00.

In the case of `CCOC(=O)C[C@H](O)[C@H](CCCCN)NC(=O)[C@H](NC(=O)C(NC(=O)CC(C)C)C(C)C)C(C)C` (stereo partly specified), the pKi (Rhizopuspepsin) was 7.48.

Work on `COC(=O)C(Cc1ccccc1)NC(=O)C[C@H](O)[C@H](CC(C)C)NC(=O)[C@@H](NC(=O)[C@@H](NC(=O)CC(C)C)C(C)C)C(C)C` (stereo partly specified) (Isovaleryl-VV[Sta][ξF]-OMe) yielded a pKi [2] of 8.89 and a pKi (Rhizopuspepsin) of 7.96.

With `CCOC(=O)C[C@H](O)[C@H](CC(C)C)NC(=O)[C@@H](NC(=O)[C@@H](NC(=O)CC(C)C)C(C)C)C(C)C` (Isovaleryl-Val-Val-[Sta]-OEt) the pKi (Rhizopuspepsin) was 7.38 and the pKi [3] was 7.33.
